The text below walks through data of PubChem BioAssay (NCI).

Molecules are shown by their SMILES.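 Step 1: Grow cells in 96-well plates. Step 2: Expose to compound for 48 hours at 5 concentrations. Step 3: Interpolate endpoints linearly; if unreached, use highest concentration. TGI: total growth inhibition.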 Where a SMILES comes first, the peptide text is derived from it. [ ]: non-standard residue; d: D form. The star is where a group is joined. ξ: configuration not given here. NMeF = CN[C@@H](Cc1ccccc1)C(=O)O; ξNMeV = CNC(C(=O)O)C(C)C; Boc = CC(C)(C)OC(=O)*; OBn = c1ccc(CO*)cc1

Some test systems named below: XF 498 CNS; LXFL 529 NSCLC; M19-MEL melanoma; UACC-257 melanoma; RXF-631 renal; KM20L2 colon; DLD-1 colon; 786-0 renal; DMS 114 small cell lung; SF-539 CNS; K-562 leukemia; UO-31 renal; SF-268 CNS; SR leukemia; SNB-78 CNS; DMS 273 small cell lung; HOP-18 NSCLC; DU-145 prostate.
Holding throughout (assay): DTP human tumour cell line panel, 48 h

What is called TGI is the concentration giving total growth inhibition. Low readings indicate greater sensitivity of the cells, high ones lower sensitivity of the cells. In the case of `COc1cc(C(C)c2cc3c(cc2OCCCCOc2cc4c(cc2C(C)c2cc(OC)c(OC)c(OC)c2)OCO4)OCO3)cc(OC)c1OC` (stereo not drawn), the TGI with XF 498 CNS is 89.2 µM; in the test with LXFL 529 NSCLC, greater than 100 µM; in the test with M19-MEL melanoma it was greater than 100 µM; in the test with UACC-257 melanoma, greater than 100 µM; in the test on RXF-631 renal, greater than 100 µM; in the test with KM20L2 colon it was greater than 100 µM. In addition, the TGI was greater than 100 µM in the test with DLD-1 colon; greater than 100 µM in the test on 786-0 renal; 45.1 µM in the test on DMS 114 small cell lung; 55.4 µM in the test with SF-539 CNS; greater than 100 µM in the test on K-562 leukemia; greater than 100 µM in the test on UO-31 renal. Besides, the concentration for total growth inhibition (TGI) in the test on SF-268 CNS was greater than 100 µM; in the test with SR leukemia, greater than 100 µM; in the test with SNB-78 CNS, 64 µM.
As to `COC(=O)N/N=C/c1oc(-c2ccccc2)c(-c2ccccc2)c1[N+](=O)[O-]`, the TGI with XF 498 CNS, in the test on LXFL 529 NSCLC, in the test on M19-MEL melanoma, with UACC-257 melanoma, in the test on RXF-631 renal and in the test on KM20L2 colon was greater than 100 µM each time. Besides, the TGI in the test with DLD-1 colon, in the test on 786-0 renal, in the test on DMS 114 small cell lung, in the test with SF-539 CNS, with K-562 leukemia and with UO-31 renal was greater than 100 µM throughout. In addition, the concentration for total growth inhibition (TGI) in the test with SF-268 CNS, in the test with SR leukemia, with SNB-78 CNS and in the test on DMS 273 small cell lung was greater than 100 µM throughout.
As to `CC(C)C(C(=O)N1CCC[C@@H]1C(=O)OCc1ccccc1)N(C)C(=O)C(C(C)C)N(C)C(=O)[C@H](Cc1ccccc1)N(C)C(=O)[C@H](NC(=O)OC(C)(C)C)C(C)C` (stereo partly drawn) (Boc-[dV][NMeF][ξNMeV][ξNMeV][dP]-OBn), the concentration for total growth inhibition (TGI) with XF 498 CNS, in the test on LXFL 529 NSCLC, in the test with M19-MEL melanoma, in the test on UACC-257 melanoma, in the test with KM20L2 colon and in the test with DLD-1 colon was greater than 100 µM throughout. The TGI in the test with 786-0 renal, in the test on DMS 114 small cell lung, in the test on SF-539 CNS, with K-562 leukemia, in the test with UO-31 renal and in the test on SF-268 CNS was greater than 100 µM throughout. The total growth inhibition concentration (TGI) in the test on SR leukemia, in the test with HOP-18 NSCLC, in the test with SNB-78 CNS and with DMS 273 small cell lung was greater than 100 µM in each case.
For `NC(=S)N1N=C2c3ccccc3CC[C@H]2[C@@H]1c1cccs1`, the TGI in the test on XF 498 CNS was greater than 100 µM; in the test on LXFL 529 NSCLC, greater than 100 µM; with M19-MEL melanoma it was greater than 100 µM; in the test on UACC-257 melanoma it was greater than 100 µM; in the test on KM20L2 colon, 62.9 µM; with DLD-1 colon, greater than 100 µM. In addition, the TGI was greater than 100 µM in the test on 786-0 renal; 61.1 µM in the test with DMS 114 small cell lung; greater than 100 µM in the test with SF-539 CNS; 35.5 µM with K-562 leukemia; greater than 100 µM with UO-31 renal; greater than 100 µM with SF-268 CNS. In addition, the concentration for total growth inhibition (TGI) in the test on SR leukemia is 63 µM; with HOP-18 NSCLC it was greater than 100 µM; with SNB-78 CNS, greater than 100 µM; in the test with DMS 273 small cell lung, 36.6 µM.
Consider `CCOC(=O)C(=O)N=Nc1nc2c(O)c3ccccc3c(O)c2s1`, for which the concentration for total growth inhibition (TGI) was determined as 4.46 µM in the test on XF 498 CNS; 3.3 µM with LXFL 529 NSCLC; 1.27 µM in the test with M19-MEL melanoma; 3.75 µM in the test on UACC-257 melanoma; 39.9 µM in the test on RXF-631 renal; 32.1 µM in the test with KM20L2 colon. For the same molecule, the TGI came out at 10.2 µM in the test with DLD-1 colon; 22.8 µM with 786-0 renal; 3.39 µM in the test on DMS 114 small cell lung; 5.13 µM in the test with SF-539 CNS; 12.7 µM in the test on K-562 leukemia; 6.12 µM in the test with UO-31 renal. Also, the total growth inhibition concentration (TGI) with SF-268 CNS is 10.8 µM; in the test with DU-145 prostate, 31.6 µM; in the test with SR leukemia, greater than 100 µM; with HOP-18 NSCLC it was 7.06 µM; with SNB-78 CNS, 8.48 µM; in the test on DMS 273 small cell lung, 9.2 µM.
In the case of `CC1(C)C2CCC3(OCCO3)C1C1OC12` (stereo not drawn), the TGI in the test on XF 498 CNS, in the test with UACC-257 melanoma, in the test on RXF-631 renal, in the test on KM20L2 colon, in the test on 786-0 renal and with SF-539 CNS was greater than 100 µM throughout. For the same molecule, the concentration for total growth inhibition (TGI) in the test on K-562 leukemia, in the test on UO-31 renal, in the test with SF-268 CNS, in the test with HOP-18 NSCLC, in the test with SNB-78 CNS and in the test with DMS 273 small cell lung was greater than 100 µM each time.
